# Measured values as given in US20220370468A1, “Methods of treating sleep disorders associated with pain” (Astellas Pharma Global Development, Inc., priority 2019, published 2022).
# System: patients with fibromyalgia
# Experiment: Phase 2a study: daily fibromyalgia sleep diary (FMSD)
# Format: in vivo, human
# Conditions: for Degree of being rested when waking up for the day, change from baseline, LS Mean (SE) / Degree of deep sleep, change from baseline, LS Mean (SE) / Degree of having enough sleep during the previous night, change from baseline, LS Mean (SE) / Difficulty getting comfortable, change from baseline, LS Mean (SE) / Difficulty staying asleep, change from baseline, LS Mean (SE) / Difficulty with beginning the day, change from baseline, LS Mean (SE) / Difficulty with falling asleep, change from baseline, LS Mean (SE) / Restlessness of sleep, change from baseline, LS Mean (SE): FAS, 15 mg
# From the text: In some embodiments, the clinical score is a score for one or more FMSD (fibromyalgia sleep diary) items. The FMSD (Kleinman et al., 2014) is a validated 8-item patient-reported outcome that assesses sleep disturbances specific to patients with fibromyalgia across the domains of falling asleep, staying asleep, and sufficient sleep (Kleinman et al., 2014). Each day upon waking, patients rated their sleep quality over the previous night on an 11-point numerical integer rating scale (NRS). Each item is rated on an 11-point NRS, ranging from 0, which corresponds to “not at all”, to 10, which corresponds to “extremely.” FMSD items include: • difficulty with falling asleep (improvement shown as a decrease in measurement); • restlessness of sleep (improvement shown as a decrease in measurement); • difficulty getting comfortable (improvement shown as a decrease in measurement); • difficulty staying asleep (improvement shown as a decrease in measurement); • degree of deep sleep (improvement shown as an increase in measurement); • degree of being rested when waking up for the day (improvement shown as an increase in measurement); • difficulty with beginning the day (improvement shown as a decrease in measurement); and • degree of having enough sleep during the previous night (improvement shown as an increase in measurement). A phase 2a, randomized, double-blind, placebo-controlled, parallel group study was conducted at 24 sites in the United States to assess the analgesic efficacy and safety of the compound of Formula (I) in patients with fibromyalgia. The study consisted of the following: a screening period of up to 42 days, which included a washout period and a 7-day baseline diary run-in; a 57-day double-blind randomized treatment period with site visits at Days 1, 15, 29, and 57; and a 4-week follow-up period consisting of a clinic visit after 2 weeks and a phone call after 4 weeks. The study was carried out in accordance with the Declaration of Helsinki and approved by the relevant Institutional Review Boards. All participants provided written informed consent prior to the initiation of any study procedures. Male and female patients aged 18 to 80 years were included in the trial if they met the American College of Rheumatology (ACR) 1990 and 2010 fibromyalgia diagnostic criteria at screening (Wolfe et al., 1990; Wolfe et al., 2010b). The core diagnostic criteria for fibromyalgia are defined by the 1990 criteria (Wolfe et al., 1990), and while ACR has published newer criteria, the 1990 version is still commonly utilized in clinical trials. To meet ACR 1990 criteria, patients must have had widespread pain for at least 3 months, defined as the presence of pain on the right and left sides of the body, pain above and below the waist, and pain in the axial skeleton (cervical spine, anterior chest, thoracic spine, or low back) (Wolfe et al., 1990). They must also have had pain in at least 11 of 18 tender point sites on digital palpation performed with an approximate force of 4 kg. To meet the ACR 2010 criteria, patients needed to have a widespread pain index (WPI) score of ≥7 and a symptom severity (SS) scale score ≥5, or a WPI score 3-6 and an SS scale score ≥9 (Wolfe et al., 2010b). Symptoms must have been present at a similar level for at least 3 months and patients must have been free of any other disorder that could have explained the pain. […] Eligible patients were randomized 1:1 using Interactive Response Technology to receive oral Compound of Formula (I) 15 mg (three capsules of 5 mg) or matching placebo capsules, each given once daily in the morning, with or without food, for 8 weeks. Sleep disturbance was assessed as an exploratory endpoint using change from baseline to each respective week (Weeks 1-8) and from baseline to EOT in daily fibromyalgia sleep diary (FMSD) responses (Kleinman et al., 2014). […]
smiles,measurement,setting,value
Cc1sc2cc(Cl)ccc2c1-c1ccc(N2CCO[C@H](CNC3CCC3)C2)c(C(=O)O)c1 [Compound of Formula (I)],"Difficulty with falling asleep, Treatment Difference (SE) (Compound of Formula (I) - placebo)","EOT (LOCF), ANCOVA, 1-sided p 0.008",−0.61 (0.25)
same,"Restlessness of sleep, Treatment Difference (SE) (Compound of Formula (I) - placebo)","EOT (LOCF), ANCOVA, 1-sided p 0.009",−0.56 (0.23)
same,"Difficulty with beginning the day, Treatment Difference (SE) (Compound of Formula (I) - placebo)","EOT (LOCF), ANCOVA, 1-sided p 0.044",−0.42 (0.25)
same,"Difficulty getting comfortable, Treatment Difference (SE) (Compound of Formula (I) - placebo)","EOT (LOCF), ANCOVA, 1-sided p 0.054",−0.35 (0.22)
same,"Degree of having enough sleep during the previous night, Treatment Difference (SE) (Compound of Formula (I) - placebo)","EOT (LOCF), ANCOVA, 1-sided p 0.100",0.32 (0.25)
same,"Difficulty staying asleep, Treatment Difference (SE) (Compound of Formula (I) - placebo)","EOT (LOCF), ANCOVA, 1-sided p 0.158",−0.22 (0.22)
same,"Degree of deep sleep, Treatment Difference (SE) (Compound of Formula (I) - placebo)","EOT (LOCF), ANCOVA, 1-sided p 0.240",0.16 (0.22)
same,"Degree of being rested when waking up for the day, Treatment Difference (SE) (Compound of Formula (I) - placebo)","EOT (LOCF), ANCOVA, 1-sided p 0.337",0.10 (0.24)
same,"Degree of being rested when waking up for the day, change from baseline, LS Mean (SE)","EOT (LOCF), ANCOVA",0.78 (0.17)
same,"Degree of deep sleep, change from baseline, LS Mean (SE)","EOT (LOCF), ANCOVA",0.60 (0.16)
same,"Degree of having enough sleep during the previous night, change from baseline, LS Mean (SE)","EOT (LOCF), ANCOVA",1.09 (0.18)
same,"Difficulty getting comfortable, change from baseline, LS Mean (SE)","EOT (LOCF), ANCOVA",−1.27 (0.16)
same,"Difficulty staying asleep, change from baseline, LS Mean (SE)","EOT (LOCF), ANCOVA",−1.08 (0.16)
same,"Difficulty with beginning the day, change from baseline, LS Mean (SE)","EOT (LOCF), ANCOVA",−0.91 (0.18)
same,"Difficulty with falling asleep, change from baseline, LS Mean (SE)","EOT (LOCF), ANCOVA",−1.41 (0.18)
same,"Restlessness of sleep, change from baseline, LS Mean (SE)","EOT (LOCF), ANCOVA",−1.50 (0.17)
same,"Difficulty with falling asleep, Treatment Difference (SE) (Compound of Formula (I) - placebo)","Week 8, MMRM, 1-sided p 0.018",−0.56 (0.26)
same,"Restlessness of sleep, Treatment Difference (SE) (Compound of Formula (I) - placebo)","Week 8, MMRM, 1-sided p 0.033",−0.48 (0.26)
same,"Difficulty with beginning the day, Treatment Difference (SE) (Compound of Formula (I) - placebo)","Week 8, MMRM, 1-sided p 0.070",−0.39 (0.26)
same,"Degree of having enough sleep during the previous night, Treatment Difference (SE) (Compound of Formula (I) - placebo)","Week 8, MMRM, 1-sided p 0.131",0.30 (0.27)
same,"Difficulty getting comfortable, Treatment Difference (SE) (Compound of Formula (I) - placebo)","Week 8, MMRM, 1-sided p 0.167",−0.23 (0.23)
same,"Difficulty staying asleep, Treatment Difference (SE) (Compound of Formula (I) - placebo)","Week 8, MMRM, 1-sided p 0.275",−0.14 (0.24)
same,"Degree of deep sleep, Treatment Difference (SE) (Compound of Formula (I) - placebo)","Week 8, MMRM, 1-sided p 0.331",0.11 (0.24)
same,"Degree of being rested when waking up for the day, Treatment Difference (SE) (Compound of Formula (I) - placebo)","Week 8, MMRM, 1-sided p 0.432",0.04 (0.25)
same,"Degree of being rested when waking up for the day, change from baseline, LS Mean (SE)","Week 8, MMRM",0.74 (0.18)
same,"Degree of deep sleep, change from baseline, LS Mean (SE)","Week 8, MMRM",0.55 (0.17)
same,"Degree of having enough sleep during the previous night, change from baseline, LS Mean (SE)","Week 8, MMRM",1.10 (0.19)
same,"Difficulty getting comfortable, change from baseline, LS Mean (SE)","Week 8, MMRM",−1.24 (0.17)
same,"Difficulty staying asleep, change from baseline, LS Mean (SE)","Week 8, MMRM",−1.09 (0.17)
same,"Difficulty with beginning the day, change from baseline, LS Mean (SE)","Week 8, MMRM",−0.89 (0.19)
same,"Difficulty with falling asleep, change from baseline, LS Mean (SE)","Week 8, MMRM",−1.46 (0.19)
same,"Restlessness of sleep, change from baseline, LS Mean (SE)","Week 8, MMRM",−1.53 (0.19)
same,FMSD difficulty with falling asleep versus placebo,"beginning at Week 2, P=0.032",Statistically significant improvements
same,FMSD difficulty getting comfortable versus placebo,"beginning at Week 3, P=0.007",Statistically significant improvements
same,FMSD difficulty staying asleep versus placebo,"beginning at Week 3, P=0.013",Statistically significant improvements
same,FMSD restlessness of sleep versus placebo,"beginning at Week 3, P=0.013",Statistically significant improvements
same,FMSD degree of deep sleep versus placebo,"beginning at Week 6, P=0.035",Statistically significant improvements
same,FMSD difficulty with beginning the day versus placebo,"beginning at Week 6, P=0.040",Statistically significant improvements
